According to patent US20060281719A1, “Oestrogen-17-sulphamates as inhibitors of steroid sulphatase” (priority 2000, published 2006):
Values joined by “and” are separate entries in the source; they are usually repeats but may differ in a detail not shown here. Equal values may be shown once.

Columns and labels:
[1] = target: T1, oestrone sulphatase (E1-STS) (Homo sapiens, UniProt P08842); assay: Inhibition of steroid sulphatase (E1-STS) activity in intact MCF-7 breast cancer cells; type: cell-based
T1 sequence (P08842 22-583): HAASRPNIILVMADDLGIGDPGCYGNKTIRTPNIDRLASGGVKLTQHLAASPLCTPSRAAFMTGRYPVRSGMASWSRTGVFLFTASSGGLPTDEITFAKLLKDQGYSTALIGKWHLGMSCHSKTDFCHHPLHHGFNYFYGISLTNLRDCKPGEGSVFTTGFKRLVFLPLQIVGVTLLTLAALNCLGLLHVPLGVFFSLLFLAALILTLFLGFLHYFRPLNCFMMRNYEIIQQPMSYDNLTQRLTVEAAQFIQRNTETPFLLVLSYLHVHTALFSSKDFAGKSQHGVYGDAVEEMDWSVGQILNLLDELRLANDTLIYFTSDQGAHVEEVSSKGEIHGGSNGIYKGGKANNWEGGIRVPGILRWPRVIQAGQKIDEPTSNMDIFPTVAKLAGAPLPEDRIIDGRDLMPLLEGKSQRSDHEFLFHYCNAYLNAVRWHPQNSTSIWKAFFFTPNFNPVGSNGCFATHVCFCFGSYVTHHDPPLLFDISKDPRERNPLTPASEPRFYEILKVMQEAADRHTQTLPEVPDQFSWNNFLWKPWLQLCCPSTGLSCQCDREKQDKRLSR

[2] = target: T1, oestrone sulphatase (E1-STS); assay: Inhibition of steroid sulphatase activity in placental microsomes; type: biochemical; design: from tissue; host or cells: human term placenta (microsomal preparation)

| Structure (SMILES) | % Inhibition of E1-STS activity in MCF-7 cells ([1]; 0.1 μM) | % Inhibition of E1-STS activity in MCF-7 cells ([1]; 1 μM) [%] | % Inhibition of E1-STS activity in MCF-7 cells ([1]; 10 μM) [%] | % Inhibition of E1-STS activity in placental microsomes ([2]; 10 μM) | % Inhibition of E1-STS activity in placental microsomes ([2]; 25 µM) [%] | % Inhibition of E1-STS activity in placental microsomes ([2]; 50 µM) [%] | % Inhibition of E1-STS activity in placental microsomes ([2]; 100 µM) [%] |
| --- | --- | --- | --- | --- | --- | --- | --- |
| NS(=O)(=O)Oc1ccc2c(c1)C(=O)c1ccc(O)cc1C2=O [Compound 11, 2-hydroxyanthraquinone-6-O-sulphamate] | 99.3 ± 0.6% | 94.5 ± 1.6 | 90.1 ± 0.8 | 86% and 86.1 ± 0.5% | 91.2 ± 0.2 | 94.4 ± 0.5 | 95.6 ± 0.1 |
| NS(=O)(=O)Oc1cccc(C(=O)c2cccc(OS(N)(=O)=O)c2)c1 [Compound 28, Benzophenone-3,3′-O,O-bis-sulphamate] | 75.3 ± 0.8% | 98.4 ± 0.3 | 99.9 ± 0.1 | 51.1 ± 3.7% | 73.6 ± 1.9 | 84.1 ± 1.9 |  |
| NS(=O)(=O)Oc1ccc(C23CC4CC(C2)CC(c2ccc(OS(N)(=O)=O)cc2)(C4)C3)cc1 [Compound 20, (1,3-Adamantanediyl)diphenyl-4,4′-O,O-bis-sulphamate] | 16.1 ± 4.0% | 32.7 ± 2.3 | 90.1 ± 0.7 | 31.4 ± 1.6% | 41.9 ± 2.3 | 62.5 ± 7.5 | 69.0 ± 4.8 |
| NS(=O)(=O)Oc1ccc(C(=O)C=Cc2ccccc2)cc1 [Compound 8, Chalcone-4′-O-sulphamate] | <10% | 33.04 ± 10.68 | 87.89 ± 2.02 | 71.27 ± 2.42% |  | 75.79 ± 2.06 | 80.51 ± 1.87 |
| NS(=O)(=O)Oc1ccc2c(c1)C(=O)c1ccc(OS(N)(=O)=O)cc1C2=O [Compound 10, Anthraquinone-2,6-O,O-bis-sulphamate] | 93% and 93.1 ± 2.1% | 98.6 ± 1.0 | 99.1 ± 0.1 |  | 95.7 ± 0.5 | 97.2 ± 0.3 | 97.7 ± 0.1 |
| Oc1ccc(C(O)(c2ccc(O)cc2)C2CCCCC2)cc1 [Compound 24, 1-Cyclohexyl-1,1-di-(4-hydroxyphenyl)methanol] |  |  |  | <10% | 20.0 ± 1.6 | 33.4 ± 2.2 | 44.7 ± 0.4 |
| NS(=O)(=O)Oc1ccc(C=CC(=O)c2ccccc2)cc1 [Compound 7, Chalcone-4-O-sulphamate] | <10% | 24.34 ± 11.89 | 83.81 ± 0.17 | 47.41 ± 0.05% |  | 75.11 ± 1.37 | 82.77 ± 0.23 |
| NS(=O)(=O)Oc1ccc(Sc2ccc(OS(N)(=O)=O)cc2)cc1 [Compound 15, Thiodiphenyl-4,4′O,O-bis-sulphamate] | 67.2 ± 1.1% | 96.6 ± 1.4 | 99.7 ± 0.1 | 65.3 ± 0.9% | 79.4 ± 0.9 | 87.4 ± 0.9 | 91.9 ± 0.4 |

The remaining lines, values ahead:

| % Inhibition of E1-STS activity in MCF-7 cells ([1]; 0.1 μM) | % Inhibition of E1-STS activity in MCF-7 cells ([1]; 1 μM) [%] | % Inhibition of E1-STS activity in MCF-7 cells ([1]; 10 μM) [%] | % Inhibition of E1-STS activity in placental microsomes ([2]; 10 μM) | % Inhibition of E1-STS activity in placental microsomes ([2]; 25 µM) [%] | % Inhibition of E1-STS activity in placental microsomes ([2]; 50 µM) [%] | % Inhibition of E1-STS activity in placental microsomes ([2]; 100 µM) [%] | Structure (SMILES) |
| --- | --- | --- | --- | --- | --- | --- | --- |
| <10% | 39.3 ± 0.1 | 92.4 ± 0.1 | 11.7 ± 2.3% | 17.3 ± 2.7 | 22.8 ± 1.4 | 34.3 ± 1.0 | NS(=O)(=O)Oc1ccc(Cc2ccc(O)cc2)cc1 [Compound 19, 4-sulphamoyloxy-4′ hydroxydiphenylmethane] |
| 34.8 ± 1.7% | 83.8 ± 0.5 | 96.7 ± 1.0 | 62.1 ± 1.4% | 82.0 ± 0.4 | 88.1 ± 0.3 | 92.8 ± 0.2 | NS(=O)(=O)Oc1ccc(C(=O)c2ccc(O)cc2)cc1 [Compound 5, 4′-Hydroxybenzophenone-4-O-sulphamate] |
| 26.6 ± 4.3% | 83.9 ± 1.2 | 97.7 ± 0.4 | 33.1 ± 1.7% | 49.5 ± 0.1 | 64.7 ± 0.9 | 76.8 ± 0.4 | NS(=O)(=O)Oc1ccc(Sc2ccc(O)cc2)cc1 [Compound 16, 4′-hydroxy-thiodiphenyl-4-O-sulphamate] |
| <10% | 30.7 ± 5.6 | 87.2 ± 1.8 | 18.8 ± 1.3% | 30.7 ± 3.4 | 43.7 ± 2.6 | 58.3 ± 0.1 | NS(=O)(=O)Oc1cccc(C(=O)c2cccc(O)c2)c1 [Compound 29, 3′-hydroxybenzophenone-3-O-sulphamate] |
